In the NIST ThermoML archive (doi:10.1016/j.fluid.2005.11.016):

How the values were obtained:
[1] = excess molar enthalpy (molar enthalpy of mixing); xn = mol fraction of the nth substance listed; conditions: 303.15 K, 101 kPa, Liquid, Calvet calorimetry
[2] = Liquid

Cc1cncc(C)c1 [3,5-dimethylpyridine] + Cc1ccccc1
[1]
Conditions | excess molar enthalpy [kcal/mol]
x1 = 0.1248 | 0.0131
x1 = 0.1817 | 0.0163
x1 = 0.2194 | 0.0186
x1 = 0.3217 | 0.0215
x1 = 0.4079 | 0.0253
x1 = 0.5991 | 0.0263
x1 = 0.6191 | 0.0256

Cc1cncc(C)c1 [3,5-dimethylpyridine]
[2]
Conditions | vapor or sublimation pressure [kPa]
263.15 K | 0.016
273.15 K | 0.038
283.15 K | 0.083
293.15 K | 0.169
303.15 K | 0.325
313.15 K | 0.596
323.15 K | 1.049
333.15 K | 1.775
343.15 K | 2.904
353.15 K | 4.603

Cc1cccc(C)n1 [2,6-dimethylpyridine] + Cc1ccccc1
[1]
Conditions | excess molar enthalpy [kcal/mol]
x1 = 0.0145 | 0.0148
x1 = 0.2129 | 0.0198
x1 = 0.2993 | 0.0203
x1 = 0.3406 | 0.021
x1 = 0.434 | 0.0206
x1 = 0.4479 | 0.0208
x1 = 0.5547 | 0.0191
x1 = 0.5885 | 0.0182
x1 = 0.6718 | 0.0167
x1 = 0.7056 | 0.0163
x1 = 0.7248 | 0.0153
x1 = 0.7746 | 0.012
x1 = 0.8563 | 0.00837

Cc1ccccc1 [toluene]
[2]
Conditions | vapor or sublimation pressure [kPa]
263.15 K | 0.468
273.15 K | 0.908
283.15 K | 1.666
293.15 K | 2.911
303.15 K | 4.873
313.15 K | 7.852
323.15 K | 12.23
333.15 K | 18.46
343.15 K | 27.12
353.15 K | 38.87

Cc1cccc(C)n1 [2,6-dimethylpyridine]
[2]
Conditions | vapor or sublimation pressure [kPa]
263.15 K | 0.065
273.15 K | 0.143
283.15 K | 0.296
293.15 K | 0.575
303.15 K | 1.061
313.15 K | 1.868
323.15 K | 3.154
333.15 K | 5.129
343.15 K | 8.066
353.15 K | 12.31
